Experimental data as given in US9676715B2, “Bis-indolic derivatives, a process for preparing the same and their uses as a drug” (UNIVERSITE JOSEPH FOURIER, priority 2011, dated 2017).
Values after ≈ are worked out from the molar mass of the structure shown.

Legend:
Test in all cases: MIC, Staphylococcus panel (9.2)
Format in all cases: cell-based
[1] = tested on: Staphylococcus aureus ATCC 106414 (VISA); details: 18 h
Procedure: (§1) The microdilution method recommended by the Clinical and Laboratory Standard Institute [M07-A9, Vol. 32, N° 2] was used. The activity of bis-indolic compounds 3f and 4 was tested against 35 Staphylococcus bacterial strains corresponding to 12 different species,
(§2) Bacterial inocula were prepared in Mueller Hinton broth (MH2, BioMérieux, Marcy L'Etoile, France). They were dispensed in 96 well microtiter plates (5×10^5 CFU/ml of final inoculum, 192 μL per well). Indolic compounds diluted in pure DMSO (8 μL per well, concentrated 25 times) were added to the wells as to obtain two-fold serial concentrations (0.5-32 mg/L of final concentrations). The final concentration of DMSO was 4% in each well.
(§3) To avoid cross-contaminations in microtiter plates, one row was left blank between each strain tested. Microplates were incubated for 18 h at 37° C. in ambient air. Then MICs were read visually and, in case of visual reading difficulties, confirmed using a spectrophotometer at a wavelength of 630 nm (BioTek® EL808 Absorbance Microplate Reader). MICs corresponded to the minimum bis-indolic compound concentration that allowed complete visual growth inhibition of bacteria. Drug-free cultures served as growth controls.
Four Staphylococcus aureus strains were used. Two reference strains were provided by the French reference center for Staphylococcus spp. (Lyon, France), including one methicillin-susceptible (MSSA 476) and one methicillin-resistant (MRSA 252) S. aureus strains. The two remaining S. aureus strains were purchased from the CRBIP (Centre de Ressources Biologiques de l'Institut Pasteur): a vancomycin-intermediate strain (ATCC 106414) and a S. aureus strain (SA-1199B) resistant to fluoroquinolones due to overexpression of the NorA multidrug efflux pump.

[2] = tested on: Staphylococcus haemolyticus (CHUG-Shae6); details: S. haemolyticus CHUG-Shae6, 4% DMSO, 18 h
Procedure: as §1, §2, §3
(§4) Coagulase-negative Staphylococcus strains included three reference strains purchased from CRBIP: a methicillin-susceptible S. epidermidis strain (ATCC 12228), a methicillin-resistant S. epidermidis strain (ATCC 49461), and a methicillin-susceptible S. sciuri strain (ATCC 29061). We also used clinical strains belonging to the following coagulase-negative Staphylococcus species: S. auricularis (two strains), S. warneri (five strains), S. capitis (five strains), S. haemolyticus (four strains), S. hominis (seven strains), S. cohnii (two strains), and S. saprophyticus, S. caprae and S. simulans (one strain each). Identification of the clinical strains was obtained using VITEK® 2 System (Biomérieux). The specified strain numbers correspond to an internal number of the bacterial strain collection of our laboratory.

[3] = tested on: Staphylococcus saprophyticus (CHUG-Ssap2); details: S. saprophyticus CHUG-Ssap2, 4% DMSO, 18 h
Procedure: as §1, §2, §3, §4

[4] = tested on: Staphylococcus hominis (CHUG-Shom7); details: S. hominis CHUG-Shom7, 4% DMSO, 18 h
Procedure: as §1, §2, §3, §4

[5] = tested on: Staphylococcus haemolyticus (CHUG-Shae5); details: S. haemolyticus CHUG-Shae5, 4% DMSO, 18 h
Procedure: as §1, §2, §3, §4

[6] = tested on: Staphylococcus warneri (CHUG-Swar4); details: S. warneri CHUG-Swar4, 4% DMSO, 18 h
Procedure: as §1, §2, §3, §4

[7] = tested on: Staphylococcus capitis (CHUG-Scap6); details: S. capitis CHUG-Scap6, 4% DMSO, 18 h
Procedure: as §1, §2, §3, §4

[8] = tested on: Staphylococcus cohnii (CHUG-Scoh1) (MRSA); details: S. cohnii CHUG-Scoh1 (MRSA), 4% DMSO, 18 h
Procedure: as §1, §2, §3, §4

[9] = tested on: Staphylococcus simulans (CHUG-Ssim1); details: S. simulans CHUG-Ssim1, 4% DMSO, 18 h
Procedure: as §1, §2, §3, §4

[10] = tested on: Staphylococcus hominis (CHUG-Shom6); details: S. hominis CHUG-Shom6, 4% DMSO, 18 h
Procedure: as §1, §2, §3, §4

[11] = tested on: Staphylococcus capitis (CHUG-Scap7); details: S. capitis CHUG-Scap7, 4% DMSO, 18 h
Procedure: as §1, §2, §3, §4

[12] = tested on: Staphylococcus hominis (CHUG-Shom8); details: S. hominis CHUG-Shom8, 4% DMSO, 18 h
Procedure: as §1, §2, §3, §4

[13] = tested on: Staphylococcus warneri (CHUG-Swar5); details: S. warneri CHUG-Swar5, 4% DMSO, 18 h
Procedure: as §1, §2, §3, §4

[14] = tested on: Staphylococcus hominis (CHUG-Shom3); details: S. hominis CHUG-Shom3, 4% DMSO, 18 h
Procedure: as §1, §2, §3, §4

[15] = tested on: Staphylococcus capitis (CHUG-Scap5); details: S. capitis CHUG-Scap5, 4% DMSO, 18 h
Procedure: as §1, §2, §3, §4

[16] = tested on: Staphylococcus hominis (CHUG-Shom5); details: S. hominis CHUG-Shom5, 4% DMSO, 18 h
Procedure: as §1, §2, §3, §4

[17] = tested on: Staphylococcus hominis (CHUG-Shom4); details: S. hominis CHUG-Shom4, 4% DMSO, 18 h
Procedure: as §1, §2, §3, §4

[18] = tested on: Staphylococcus caprae (CHUG-Scapra1); details: S. caprae CHUG-Scapra1, 4% DMSO, 18 h
Procedure: as §1, §2, §3, §4

[19] = tested on: Staphylococcus cohnii (CHUG-Scoh2); details: S. cohnii CHUG-Scoh2, 4% DMSO, 18 h
Procedure: as §1, §2, §3, §4

[20] = tested on: Staphylococcus warneri (CHUG-Swar6); details: S. warneri CHUG-Swar6, 4% DMSO, 18 h
Procedure: as §1, §2, §3, §4

[21] = tested on: Staphylococcus capitis (CHUG-Scap4); details: S. capitis CHUG-Scap4, 4% DMSO, 18 h
Procedure: as §1, §2, §3, §4

CC(NC(=O)c1c[nH]c2ccc(Br)cc12)c1c[nH]c2ccc(Br)cc12 (stereo not drawn) [Compound 4, 5-Bromo-N-(1-(5-bromo-1H-indol-3-yl)ethyl)-1H-indole-3-carboxamide]
MIC [1]: 1 µg/mL (≈ 2.17 µM)

CC(C)(C)OC(=O)NCC(NC(=O)c1c[nH]c2ccc(Br)cc12)c1c[nH]c2ccc(Br)cc12 (stereo not drawn) [Compound 3f, tert-Butyl(2-(5-bromo-1H-indol-3-yl)-2-(5-bromo-1H-indolyl-3-carboxamido)ethyl)carbamate]
MIC [2]: 16 µg/mL (≈ 27.8 µM) | MIC [3]: 8 µg/mL (≈ 13.9 µM) | MIC [4]: 8 µg/mL (≈ 13.9 µM) | MIC [5]: 16 µg/mL (≈ 27.8 µM) | MIC [6]: 8 µg/mL (≈ 13.9 µM) | MIC [7]: 8 µg/mL (≈ 13.9 µM) | MIC [8]: 16 µg/mL (≈ 27.8 µM) | MIC [9]: 16 µg/mL (≈ 27.8 µM) | MIC [10]: 8 µg/mL (≈ 13.9 µM) | MIC [11]: 16 µg/mL (≈ 27.8 µM) | MIC [12]: 8 µg/mL (≈ 13.9 µM) | MIC [13]: 8 µg/mL (≈ 13.9 µM) | MIC [14]: 16 µg/mL (≈ 27.8 µM) | MIC [15]: 16 µg/mL (≈ 27.8 µM) | MIC [16]: 8 µg/mL (≈ 13.9 µM) | MIC [17]: 8 µg/mL (≈ 13.9 µM) | MIC [18]: 8 µg/mL (≈ 13.9 µM) | MIC [19]: 16 µg/mL (≈ 27.8 µM) | MIC [20]: 8 µg/mL (≈ 13.9 µM) | MIC [21]: 4 µg/mL (≈ 6.94 µM)
